Tests used:
[1] = molecular target: T1, ETA (rabbit renal artery vascular smooth muscle cells) (Oryctolagus cuniculus, UniProt A5A8K3); assay type: binding; details: [125I]-ET-1 40 pM, 2 hours at 37° C.; read-out: ERBA-A IC50 (converted)
T1 construct: rabbit renal artery vascular smooth muscle cells (ERBA-A); endogenous in cells; host or cells: cultured rabbit renal artery vascular smooth muscle cells (membranes)
T1 sequence (A5A8K3 21-427): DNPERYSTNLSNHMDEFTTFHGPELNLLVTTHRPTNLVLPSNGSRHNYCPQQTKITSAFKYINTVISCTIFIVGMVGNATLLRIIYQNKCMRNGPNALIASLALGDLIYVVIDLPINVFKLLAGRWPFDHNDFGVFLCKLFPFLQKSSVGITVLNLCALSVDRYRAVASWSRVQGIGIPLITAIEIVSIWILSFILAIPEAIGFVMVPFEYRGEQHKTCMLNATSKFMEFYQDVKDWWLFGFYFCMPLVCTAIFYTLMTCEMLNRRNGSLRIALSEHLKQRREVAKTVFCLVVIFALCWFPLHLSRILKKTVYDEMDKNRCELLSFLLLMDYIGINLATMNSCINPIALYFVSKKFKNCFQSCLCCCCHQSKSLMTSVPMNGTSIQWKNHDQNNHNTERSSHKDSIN
Experimental: The compounds of Formula I are valuable antagonists of endothelin. […] Membranes were prepared from cultured cells by lysing cells in cold lysis buffer (5 mM HEPES, 2 mM EDTA, pH 7.4) and homogenizing with a Dounce "A" homogenizer. The homogenate was centrifuged at 30,000×g for 20 min at 4° C. […] Radioligand and competing ligands were prepared in binding buffer containing 20 mM Tris, 2 mM EDTA, and 0.1% BSA. Competing binding assays were initiated by combining membranes, [125I]-ET-1 (40 pM) and the competing ligand in a final volume of 250 uL and incubating for 2 hours at 37° C.

recombinant human ETB R = molecular target: T2, recombinant human ETB R (Homo sapiens, UniProt P24530); assay type: binding; details: [125I]-ET-1 40 pM, 2 hours at 37° C., CHO-K1 cells, read-out: HERBA-B IC50
T2 construct: expressed in transfected cells; host or cells: CHO-K1 cells (membranes)
T2 sequence (P24530 27-442): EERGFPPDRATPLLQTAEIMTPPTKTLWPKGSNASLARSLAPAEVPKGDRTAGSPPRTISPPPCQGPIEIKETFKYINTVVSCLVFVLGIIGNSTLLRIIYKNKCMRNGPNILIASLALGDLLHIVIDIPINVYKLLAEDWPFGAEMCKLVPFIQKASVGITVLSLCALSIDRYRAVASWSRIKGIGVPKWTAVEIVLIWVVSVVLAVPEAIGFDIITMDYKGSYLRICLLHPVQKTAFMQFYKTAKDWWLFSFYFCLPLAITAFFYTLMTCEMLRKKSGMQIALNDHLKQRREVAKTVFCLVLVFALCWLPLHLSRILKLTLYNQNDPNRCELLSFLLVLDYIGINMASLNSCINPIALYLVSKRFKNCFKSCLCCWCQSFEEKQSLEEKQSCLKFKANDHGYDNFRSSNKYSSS
Experimental: (§1) Membranes were prepared from cultured cells by lysing cells in cold lysis buffer (5 mM HEPES, 2 mM EDTA, pH 7.4) and homogenizing with a Dounce "A" homogenizer. The homogenate was centrifuged at 30,000×g for 20 min at 4° C. […] Radioligand and competing ligands were prepared in binding buffer containing 20 mM Tris, 2 mM EDTA, and 0.1% BSA.

recombinant human ETA R = molecular target: T3, recombinant human ETA R (Homo sapiens, UniProt P25101); assay type: binding; details: [125I]-ET-1 40 pM, 2 hours at 37° C., Ltk- cells, read-out: HERBA-A IC50
T3 construct: expressed in transfected cells; host or cells: Ltk- cells (membranes)
T3 sequence (P25101 21-427): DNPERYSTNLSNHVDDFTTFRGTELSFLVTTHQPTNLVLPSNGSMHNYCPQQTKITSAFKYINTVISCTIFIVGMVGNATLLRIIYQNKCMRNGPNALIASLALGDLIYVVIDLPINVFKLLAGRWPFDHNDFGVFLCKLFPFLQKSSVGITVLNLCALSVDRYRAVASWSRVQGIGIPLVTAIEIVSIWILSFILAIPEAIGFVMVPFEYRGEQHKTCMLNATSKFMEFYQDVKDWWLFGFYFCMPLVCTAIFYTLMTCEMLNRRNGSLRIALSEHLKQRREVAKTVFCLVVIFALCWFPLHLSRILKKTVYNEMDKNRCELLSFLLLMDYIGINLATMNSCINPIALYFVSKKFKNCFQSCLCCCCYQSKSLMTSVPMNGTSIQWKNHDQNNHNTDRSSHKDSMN
Experimental: as §1

[2] = molecular target: T4, rabbit femoral artery (ETA) (Oryctolagus cuniculus, UniProt A5A8K3); assay: In vitro antagonism of ET-1 stimulated vasoconstriction (VERA-A) in the rabbit femoral artery (ETA); assay type: cell-based
T4 construct: Femoral and pulmonary arteries were isolated, cleaned of connective tissue, and cut into 4-mm rings; from tissue; host or cells: rabbit femoral artery rings, endothelium denuded
T4 sequence (A5A8K3 21-427): T1 sequence (A5A8K3 21-427)
Experimental: (§2) Male New Zealand rabbits were killed by cervical dislocation and exsanguination. Femoral and pulmonary arteries were isolated, cleaned of connective tissue, and cut into 4-mm rings. The endothelium was denuded by placing the rings over hypodermic tubing (32 gauge for femoral rings and 28 gauge for pulmonary rings, Small Parts, Inc, Miami, Fla.) and gently rolling them. […] Resting tension was adjusted to 3.0 g for femoral and 4.0 g pulmonary arteries; the rings were left for 90 minutes to equilibrate.

[3] = molecular target: T5, rabbit pulmonary artery (ETB) (Oryctolagus cuniculus, UniProt Q9N0W7); assay: Antagonism of sarafotoxin 6c stimulated vasoconstriction in the rabbit pulmonary artery (ETB) (VERA-B); assay type: cell-based
T5 construct: Femoral and pulmonary arteries were isolated, cleaned of connective tissue, and cut into 4-mm rings; from tissue; host or cells: rabbit pulmonary artery rings, endothelium denuded
T5 sequence (Q9N0W7 27-441): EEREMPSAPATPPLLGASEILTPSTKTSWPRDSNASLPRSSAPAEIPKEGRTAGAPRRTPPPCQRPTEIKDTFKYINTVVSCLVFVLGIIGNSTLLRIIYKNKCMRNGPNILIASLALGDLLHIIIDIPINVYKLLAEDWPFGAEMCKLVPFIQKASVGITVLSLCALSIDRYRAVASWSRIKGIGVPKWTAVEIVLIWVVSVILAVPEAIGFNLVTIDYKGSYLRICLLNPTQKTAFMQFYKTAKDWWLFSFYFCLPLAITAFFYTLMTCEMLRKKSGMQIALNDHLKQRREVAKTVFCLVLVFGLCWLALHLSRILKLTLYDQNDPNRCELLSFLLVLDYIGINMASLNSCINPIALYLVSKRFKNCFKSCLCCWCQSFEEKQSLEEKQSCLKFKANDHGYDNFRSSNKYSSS
Experimental: as §2

[4] = tested on: porcine pulmonary arteries; details: isolated, endothelium-intact porcine pulmonary arteries; cited from earlier work

Row | Compound | IC50 [1] [nM] | IC50 (recombinant human ETB R) [nM] | IC50 (recombinant human ETA R) [nM] | IC50 [2] [nM] | IC50 [3] [nM] | vasorelaxation [4]
1 | O=C(O)c1c(Sc2ccccc2)c2ccccc2n1-c1ccc2c(c1)OCO2 [Example 1, 1-Benzo-[1,3]dioxol-5-yl-3-phenylsulfanyl-1H-indole-2-carboxylic acid] | 1900 | 6500 | 3200 |  |  | 
2 | COc1cccc(Sc2c(C(=O)O)n(Cc3ccc4c(c3)OCO4)c3cc(OC)c(OC)cc23)c1 [Example 2] | 30 | 1100 |  | 100 |  | 
3 | COc1cccc(Sc2c(C(=O)O)n(Cc3ccc4c(c3)OCO4)c3ccccc23)c1 [Example 3, 1-Benzo[1,3]dioxol-5-ylmethyl-3-(3-methoxy-phenylsulfanyl)-1H-indole-2-carboxylic acid] | 500 | 7400 | 90 |  |  | 
4 | COc1cccc(Sc2c(C(=O)O)n(Cc3ccccc3)c3ccccc23)c1 [Example 4, 1-Benzyl-3-(3-methoxy-phenylsulfanyl)-1H-indole-2carboxylic acid] | 7300 | 1500 | 4600 |  |  | 
5 | O=C(O)c1c(Sc2ccc3c(c2)OCO3)c2ccccc2n1Cc1ccc2c(c1)OCO2 [Example 5, 1-Benzo[1,3]dioxol-5-ylmethyl-3-(benzo[1,3]dioxol-5-ylsulfanyl)-1H-indole-2-carboxylic acid] | 570 | 4500 | 380 |  |  | 
6 | COc1cccc(Sc2c(C(=O)O)n(Cc3ccc4c(c3)OCO4)c3cc4c(cc23)OCO4)c1 [Example 6, 5-Benzo[1,3]dioxol-5-ylmethyl-7-(3-methoxy-phenylsulfanyl)-5H-[1,3]dioxolo[4,5-f]indole-6-carboxylic acid] |  | 710 | 84 |  |  | 
7 | COc1cccc(Sc2c(C(=O)O)n(Cc3cc(OC)c4c(c3)OCO4)c3cc4c(cc23)OCO4)c1 [Example 7, 5-(7-Methoxy-benzo[1,3]dioxol-5-ylmethyl)-7-(3-methoxy-phenylsulfanyl)-5H-[1,3]dioxolo[4,5-f]indole-6carboxylic acid] |  | 2900 | 380 |  |  | 
8 | COc1ccc(Sc2c(C(=O)O)n(Cc3ccc4c(c3)OCO4)c3cc4c(cc23)OCO4)cc1OC [Example 8, 5-Benzo [1,3]dioxo1-5-ylmethyl-7-(3,4-dimethoxyphenylsulfanyl)-5H-[1,3]dioxolo[4,5-f]indole-6-carboxylicacid] |  | 170 | 39 | 316 | 316 | 
9 | COc1ccc(Sc2c(C(=O)O)n(Cc3cc(OC)c4c(c3)OCO4)c3cc4c(cc23)OCO4)cc1OC [Example 9, 7-(3,4-Dimethoxy-phenylsulfanyl)-5-(7-methoxy-benzo[1,3]dioxol-5-ylmethyl)-5H-[1,3]dioxolo[4,5-f]indole-6-carboxylic acid] |  | 420 | 170 |  |  | 
10 | CCCOc1ccc2c(Sc3cccc(OC)c3)c(C(=O)O)n(Cc3ccc4c(c3)OCO4)c2c1 [Example 10, 1-Benzo[1,3]dioxol-5-ylmethyl-3-(3-methoxy-phenylsulfanyl)-6-propoxy-1H-indole-2-carboxylic acid] |  | 6700 | 590 |  |  | 
11 | COc1cccc(Sc2c(C(=O)O)n(Cc3cc(OC)c4c(c3)OCO4)c3cc(OC)c(OC)cc23)c1 [Example 11, 5,6-Dimethoxy-1-(7-methoxy-benzo[1,3]dioxol-5-ylmethyl)-3-(3-methoxy-phenylsulfanyl)-1H-indole-2carboxylic acid] |  | 1100 | 58 |  |  | 
12 | COc1ccc(Cn2c(C(=O)O)c(Sc3cccc(OC)c3)c3cc(OC)c(OC)cc32)cc1 [Example 12, 5,6-Dimethoxy-1-(4-methoxy-benzyl)-3-(3-methoxy-phenylsulfanyl)-1H-indole-2-carboxylic acid] |  | 870 | 160 |  |  | 
13 | COc1cccc(Sc2c(C(=O)O)n(Cc3ccc4c(c3)OCO4)c3cc(OC)c(OCc4ccccc4)cc23)c1 [Example 13, 1-Benzo[1,3]dioxol-5-ylmethyl-5-benzyloxy-6-methoxy-3-(3-methoxy-phenylsulfanyl)-1H-indole-2-carboxylic acid] |  | 690 | 81 |  |  | 
14 | COc1cc2c(Sc3cc(OC)c(OC)c(OC)c3)c(C(=O)O)n(Cc3ccc4c(c3)OCO4)c2cc1OC [Example 14, 1-Benzo[1,3]dioxol-5-ylmethyl-5,6-dimethoxy-3-(3,4,5-trimethoxy-phenylsulfanyl)-1H-indole-2-carboxylic acid] |  |  |  | 31.6 | 3160 | 
15 | COc1cc2c(Sc3ccc4c(c3)OCO4)c(C(=O)O)n(Cc3ccc4c(c3)OCO4)c2cc1OCc1ccccc1 [Example 15, 1-Benzo[1,3]dioxol-5-ylmethyl-3-(benzo[1,3]dioxol-5-ylsulfanyl)-6-benzyloxy-5-methoxy-1H-indole-2-carboxylic acid] |  | 53 | 690 |  |  | 
16 | COc1cccc(Sc2c(C(=O)O)n(Cc3ccc(OC)cc3OCC(=O)O)c3cc(OC)c(OC)cc23)c1 [Example 16, 1-(2-Carboxymethoxy-4-methoxy-benzyl)-5,6-dimethoxy-3-(3-methoxy-phenylsulfanyl)-1H-indole-2carboxylic acid] |  | 1200 | 480 |  |  | 
17 | COc1cc2c(Sc3ccc4c(c3)OCO4)c(C(=O)O)n(Cc3ccc4c(c3)OCO4)c2cc1OC [Example 17, 1-Benzo[1,3]dioxol-5-ylmethyl-3-(benzo[1,3]dioxol-5-ylsulfanyl)-5,6-dimethoxy-1H-indole-2-carboxylic acid] | 631 |  |  | 50.1 |  | 
18 | ET[1,3,11,15-A1a]: selective ETB agonist, linear analog (ASASSLMDKEAVYFAHLDIIW; Endothelin-1; UniProt P05305 53-73, looked up, variant C1A C3A C11A C15A) |  |  |  |  |  | caused vasorelaxation
